According to paper PMC5576918, “Small molecule inhibition of apicomplexan FtsH1 disrupts plastid biogenesis in human pathogens” (eLife, 2017):
Like-named read-outs stand apart in the source and are kept apart here.

Assays:
PfFtsH1 = target: T1, PfFtsH1 (Plasmodium falciparum, UniProt Q8I526); experiment: ATP-dependent FITC-casein proteolysis by purified recombinant PfFtsH1, fluorescence; type: biochemical
T1 construct: gene PF3D7_1239700; His6-SUMO-PfFtsH1_91-612-GST (AAA+ ATPase and peptidase domains, lacking transmembrane domain)

P. falciparum [1] = experiment: microbe, parasite or virus in culture; design: species or system P. falciparum asexual blood stages in human erythrocytes; Blood-stage parasite growth inhibition over two lytic cycles, YOYO-1 parasitemia by flow cytometry; conditions: Plasmodium falciparum, Erythrocyte, 96 h, read-out: 96h
Experimental: (§1) For P. falciparum EC50 calculations, growth assays were performed in 96 well plates containing serial dilution of drugs in triplicate. Media was supplemented with 200 uM IPP as indicated. Growth was initiated with ring-stage parasites (synchronized with 5% sorbitol treatment) at 1% parasitemia and 1% hematocrit. […] Parasitized cells were stained with 50 nM YOYO-1 (Invitrogen) overnight at room temperature and the parasitemia was determined by flow cytometry (BD Accuri C6 Sampler). Data were analyzed by BD Accuri C6 Sampler software. […] A single natural product antibiotic, actinonin, matched our criteria (Figure 1a) ([Gordon et al., 1962]). […] Because isoprenoid precursor biosynthesis is the only essential function of the apicoplast in blood-stage P. falciparum, any disruption of the apicoplast, including complete loss of the organelle, can be rescued by addition of the isoprenoid precursor, isopentenyl pyrophosphate (IPP), in the growth media ([Yeh and DeRisi, 2011]). […] Compared to chloramphenicol, actinonin clearly had more rapid antimalarial activity.

P. falciparum [2] = experiment: microbe, parasite or virus in culture; design: species or system P. falciparum asexual blood stages in human erythrocytes; Blood-stage parasite growth inhibition over one lytic cycle, YOYO-1 parasitemia by flow cytometry; conditions: Plasmodium falciparum, Erythrocyte, 48 h, read-out: 48h
Experimental: as §1

T1 sequence (Q8I526 entry or part of it): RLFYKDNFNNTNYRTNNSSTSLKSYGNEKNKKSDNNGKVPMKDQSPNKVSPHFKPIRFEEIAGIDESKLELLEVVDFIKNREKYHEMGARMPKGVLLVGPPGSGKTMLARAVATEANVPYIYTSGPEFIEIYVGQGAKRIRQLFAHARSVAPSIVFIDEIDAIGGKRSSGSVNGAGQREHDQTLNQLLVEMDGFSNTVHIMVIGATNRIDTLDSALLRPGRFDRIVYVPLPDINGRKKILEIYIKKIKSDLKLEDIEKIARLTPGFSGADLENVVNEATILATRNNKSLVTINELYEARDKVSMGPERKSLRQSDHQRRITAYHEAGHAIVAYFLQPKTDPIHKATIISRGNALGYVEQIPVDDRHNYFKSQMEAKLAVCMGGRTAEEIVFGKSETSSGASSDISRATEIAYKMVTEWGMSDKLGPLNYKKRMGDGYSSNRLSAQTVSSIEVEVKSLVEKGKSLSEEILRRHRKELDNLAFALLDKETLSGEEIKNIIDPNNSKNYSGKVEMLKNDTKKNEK

| IC50 (PfFtsH1) [µM] | SMILES | EC50 (P. falciparum [1]) [µM] | EC50 (P. falciparum [2]) [µM] |
| --- | --- | --- | --- |
| 7.3 | CCCCC[C@H](CC(N)=O)C(=O)N[C@H](C(=O)N1CCC[C@H]1CO)C(C)C [actinamide] | – | – |
| – | CO[C@H]1/C=C/O[C@@]2(C)Oc3c(C)c(O)c4c(O)c(c(/C=N/N5CCN(C)CC5)c(O)c4c3C2=O)NC(=O)/C(C)=C\C=C\[C@H](C)[C@H](O)[C@@H](C)[C@@H](O)[C@@H](C)[C@H](OC(C)=O)[C@@H]1C [rifampin] | 2 | 1 |
| – | CCn1cc(C(=O)O)c(=O)c2cc(F)c(N3CCNCC3)cc21 [norfloxacin] | 10 | 40 |
| – | O=C(O)c1cn(C2CC2)c2cc(N3CCNCC3)c(F)cc2c1=O [ciprofloxacin] | 6 | 24 |
| – | CC(C)C(=O)OC[C@H]1O[C@@H](n2ccc(N)nc2=O)[C@](C)(F)[C@@H]1OC(=O)C(C)C [mericitabine] | > 200 | > 200 |
| – | Nc1ccn([C@@H]2O[C@H](CO)[C@@H](O)[C@H]2F)c(=O)n1 [2'deoxy-2-F-cytidine] | > 200 | > 200 |
| – | CCn1cc(C(=O)O)c(=O)c2cc(F)c(N3CCNCC3)nc21 [enoxacin] | 5.7 | > 50 |
| – | CO[C@@H]1[C@@H](OC(N)=O)[C@@H](O)[C@H](Oc2ccc3c(O)c(NC(=O)c4ccc(O)c(CC=C(C)C)c4)c(=O)oc3c2C)OC1(C)C [novobiocin] | 36 | 40 |
| – | C[C@H]1COc2c(N3CCN(C)CC3)c(F)cc3c(=O)c(C(=O)O)cn1c23 [levofloxacin] | 16 | 70 |
| – | CCCCC[C@H](CC(=O)NO)C(=O)N[C@H](C(=O)N1CCC[C@H]1CO)C(C)C [actinonin] | 2.7 | 3.2 |
